Source: patent US20230346864A1, “Compositions and Methods for Joint Health” (Innophos, LLC, priority 2020, published 2023)

How the values were obtained:
[1] = tested on: collagen-induced arthritis (CIA) model in rats; assay: CIA rats: arthritis severity index; assay type: in vivo, Sprague—Dawley rats; conditions: Methotrexate 0.5 mg/kg; vehicle CIA rats day 10
Text: (§1) Collagen induced arthritis (CIA) in rats was developed and utilized to evaluate efficacy of orally administered cashew skin extract for three weeks post disease induction. The study included seven groups of rats (n=9 rats/group). The rats were purpose bred male Sprague—Dawley rats (7-8 weeks old, Charles River Laboratories Inc., Wilmington, MA). Animals were acclimated for two weeks to achieve the required body weight before being assigned randomly to their respective group. Rats (3/cage) were housed in a polypropylene cage and individually identified by numbers on their tail. Individual cages were identified with a cage card indicating project number, test article, dose level, group, and animal number. Harlan Soft cob bedding (Envigo Tekland 7087, Envigo, Indianapolis, Indiana) was used and changed at least twice/week. Animals were provided with fresh water and rodent chow diet (Teklad 2018, Envigo, Indianapolis, Indiana) ad libitum and housed in a temperature-controlled room (22.2° C.) on a 12-h light-dark cycle throughout the study.
(§2) The study rats were randomized and administered one of seven study articles as noted in Table 4— […]
(§3) Rats were evaluated for arthritis index before injection of a booster dose. […]
(§4) During the in-life period, arthritis severity index, paw thickness, ankle diameter and pain sensitivity were monitored. […]

[2] = tested on: collagen-induced arthritis (CIA) model in rats; assay: CIA rats: paw thickness / paw edema; assay type: in vivo, Sprague—Dawley rats; conditions: day 7-day 21; Methotrexate 0.5 mg/kg; vs vehicle treated CIA
Text: as §1, §2, §3, §4

[3] = tested on: collagen-induced arthritis (CIA) model in rats; assay: CIA rats: ankle diameter; assay type: in vivo, Sprague—Dawley rats; conditions: days 7 to 21; Methotrexate 0.5 mg/kg
Text: as §1, §2, §3, §4

[4] = tested on: collagen-induced arthritis (CIA) model in rats; assay: CIA rats: pain sensitivity (Randall—Selitto probe); assay type: in vivo, Sprague—Dawley rats; conditions: Methotrexate 0.5 mg/kg; range over time points
Text: as §1, §2, §3, §4

CTX-II = assay: CIA rats: urine CTX-II ELISA; assay type: in vivo, Rat; conditions: Methotrexate 0.5 mg/kg
Text: as §1
(§5) During the in-life period, arthritis severity index, paw thickness, ankle diameter and pain sensitivity were monitored. Urine and serum were collected at the end of study for biomarker analysis. […] Urinary cartilage degradation marker (CTX-II), proinflammatory cytokines (TNF-α, IL-1β, and IL-6), cartilage synthesis marker (PIIANP) and matrix degrading proteases (MMP13) were measured.
Assay. Rat urine samples were diluted 1:3 and the presence of CTX-II was measured using the Rat CTX-II ELISA kit from Mybiosource as follows. […] After the addition of stop solution, the absorbance was read at 450 nm, multiplied by dilution factor, and the concentration of CTX-II calculated based on the absorbance readings of a CTX-II standard curve.
Creatine—CTX-II amount was normalized to the amount of Creatinine in the urine using a Creatinine Parameter Assay Kit (R&D Systems) as follows. […] Absorbance was read at 492 nm, and Creatinine amount in urine was calculated based on the absorbance readings of a Creatinine standard curve. […]

IL-1β = assay: CIA rats: serum IL-1β ELISA; assay type: in vivo, Rat; conditions: Methotrexate 0.5 mg/kg
Text: as §1, with “Harlan Soft cob bedding (Envigo Tekland 7087, Envigo, Indianapolis, Indiana) was used and changed at least twice/week. Animals were provided with fresh water and rodent chow diet (Teklad 2018, Envigo, Indianapolis, Indiana) ad libitum and housed in a temperature-controlled room (22.2° C.) on a 12-h light-dark cycle throughout the study.” left out
as §5, with “monitored.” for “monitored. Urine and serum were collected at the end of study for biomarker analysis.”, “measured. […]” for “measured.”
ELISA Assay. The presence of cytokines IL-1β/IL-6/TNF-α was measured using the Rat IL-1β/IL-6/TNF-α Quantikine ELISA kit (R&D Systems, Minneapolis, Minnesota) as follows. […] After the addition of stop solution, the absorbance was read at 450 nm and the concentration of IL-1β/IL-6/TNF-α calculated based on the absorbance readings of an IL-1β/IL-6/TNF-α standard curve.

PIIANP = assay: CIA rats: serum PIIANP ELISA; assay type: in vivo, Rat; conditions: Methotrexate 0.5 mg/kg
Text: as §1, with “Harlan Soft cob bedding (Envigo Tekland 7087, Envigo, Indianapolis, Indiana) was used and changed at least twice/week. Animals were provided with fresh water and rodent chow diet (Teklad 2018, Envigo, Indianapolis, Indiana) ad libitum and housed in a temperature-controlled room (22.2° C.) on a 12-h light-dark cycle throughout the study.” left out
as §5, with “monitored.” for “monitored. Urine and serum were collected at the end of study for biomarker analysis.”
ELISA Assay. The presence of PIIANP was measured using the Rat Procollagen Type IIA N-Prop (PIIANP) ELISA kit (MyBiosource, San Diego, California) as follows. […] After the addition of stop solution, the absorbance was read at 450 nm and the concentration of PIIANP calculated based on the absorbance readings of a PIIANP standard curve.

[5] = tested on: collagen-induced arthritis (CIA) model in rats; assay: CIA rats: ankle joint histopathology (modified Mankin system); assay type: in vivo, Sprague—Dawley rats; conditions: Methotrexate 0.5 mg/kg
Text: as §1
During the in-life period, arthritis severity index, paw thickness, ankle diameter and pain sensitivity were monitored. Urine and serum were collected at the end of study for biomarker analysis. Necropsy was carried out on day 22 for all the groups post priming. At necropsy, the ankle joint from each rat was collected for histopathology analysis. Urinary cartilage degradation marker (CTX-II), proinflammatory cytokines (TNF-α, IL-1β, and IL-6), cartilage synthesis marker (PIIANP) and matrix degrading proteases (MMP13) were measured.
Procedures and Evaluations. At necropsy, the ankle joint was carefully dissected out, fixed in 10% buffered formalin, and sent to Nationwide Histology (Veradale, WA, USA) for further histopathology analysis. The fixed specimens were then decalcified with Calci-Clear Rapid for one and a half days and embedded in paraffin. Standardized 5 μm serial sections were obtained from each rat and stained with hematoxylin and eosin (HE) and Safranin 0-fast green to enable evaluation of proteoglycan content. A modified Mankin system (Mankin et al., 1981) was used to score structural and cellular alterations of articular components as indications of disease progression and/or treatment efficacy. The histological analysis was conducted by a certified Pathologist at Nationwide Histology.

[6] = tested on: potato 5-Lipoxygenase enzyme; assay: 5-LOX inhibition, Lipoxygenase Inhibitor Screening Assay Kit; assay type: biochemical; conditions: at 100 μM
Protocol: Cashew testa extract was tested for 5-LOX inhibition using the Lipoxygenase Inhibitor Screening Assay Kit (available from Cayman Chemical, Ann Arbor, Michigan, US) and potato 5-Lipoxygenase enzyme (available from Cayman Chemical). This kit measures hydroperoxides produced in the lipoxygenation reaction.
The extracts were dissolved in methanol to final working concentrations. 5-LOX enzyme, Chromagen, and Linoleic Acid solutions were prepared immediately before use. Nordihydroguaiaretic acid (‘NDGA’) was used as a positive control. 5-LOX enzyme was added to the test samples and controls and incubated for five minutes at room temperature to allow for enzyme/inhibitor interaction. Linoleic acid substrate was added to the plate to initiate the reaction, and the plate was then shaken at room temperature for 10 minutes. Chromagen was added to visualize the hydroperoxides formed during the reaction and the plate was shaken at room temperature for another five minutes. The absorbance was then read at 492 nm. Percent inhibition of the extract concentration was calculated in comparison to the uninhibited control wells.
Cashew testa extract was tested for its 5-LOX inhibition activity at 10 different concentrations (0.7, 1.5, 3.0, 6.0, 11.9, 15.6, 31.2, 62.5, 125.0 and 250.0 μg/mL).

Row | Structure (SMILES) | disease onset, day after priming [1] | reduction in paw edema, area under the swelling curve [2] | reduction in ankle diameter, area under the curve [3] | pain tolerance vs Vehicle treated CIA [4] | urine CTX-II, cartilage protection vs vehicle treated CIA rats (CTX-II; normalized with creatinine) | urine CTX-II, cartilage protection vs vehicle treated CIA rats (CTX-II; normalized with protein) | urine CTX-II, cartilage protection vs vehicle treated CIA rats (CTX-II; raw data) | reduction in serum level of IL-1β vs CIA rats treated with vehicle (IL-1β) | increase in serum PIIANP compared to CIA+vehicle (PIIANP) | GAG loss, lower than vehicle [5] | bone erosion, lower than vehicle [5] | cartilage destruction, lower than vehicle [5] | inflammation, lower than vehicle [5] | 5-LOX enzyme inhibition [6]
1 | CN(Cc1cnc2nc(N)nc(N)c2n1)c1ccc(C(=O)N[C@@H](CCC(=O)O)C(=O)O)cc1 [MTX, Methotrexate] | 14 | 90.2% | 89.1% | 14.1-67.1% | 27.2% | 22.9% | up to 53.8% | 86.4% | 41% | 50.7% | 71.2% | 50.7% | 55.8% | 
2 | CC(Cc1ccc(O)c(O)c1)C(C)Cc1ccc(O)c(O)c1 (centres unmarked) [NDGA, Nordihydroguaiaretic acid] |  |  |  |  |  |  |  |  |  |  |  |  |  | 100%
